This note sets out measurements from patent publication US20060069123A1, “Substituted dipiperidine CCR2 antagonists” (priority 2004, published 2006).

The structures appear in SMILES notation.

One test addresses T1, CCR2 (Homo sapiens, UniProt P41597).
T1 sequence (P41597 1-360 isoform P41597-2): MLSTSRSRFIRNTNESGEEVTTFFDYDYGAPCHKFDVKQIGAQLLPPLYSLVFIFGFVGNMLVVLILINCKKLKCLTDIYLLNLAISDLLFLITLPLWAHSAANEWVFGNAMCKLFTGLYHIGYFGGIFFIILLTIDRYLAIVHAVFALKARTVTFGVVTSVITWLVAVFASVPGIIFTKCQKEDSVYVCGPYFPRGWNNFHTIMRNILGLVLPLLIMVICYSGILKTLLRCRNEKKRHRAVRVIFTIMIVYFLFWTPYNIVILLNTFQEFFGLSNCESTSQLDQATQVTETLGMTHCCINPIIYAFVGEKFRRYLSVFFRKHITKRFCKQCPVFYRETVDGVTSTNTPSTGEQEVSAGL

In the next test the test system is THP-1 cells. Put plainly: MCP-1 Induced Chemotaxis in THP-1 Cells. The test is classed as cell-based. To be noted: Homo sapiens; THP-1 cells, MCP-1 0.01 μg/mL, 3 hours; read-out: Inhibition of MCP-1 Induced Chemotaxis IC50. The method, then:
MCP-1 Induced Chemotaxis in THP-1 Cells
MCP-1 induced chemotaxis was run in a 24-well chemotaxis chamber. MCP-1 (0.01 μg/mL) was added to the lower chamber and 100 μL of THP-1 cells (1×10^7 cell/mL) was added to the top chamber. Varying concentrations of test compound were added to the top and bottom chambers. Cells were allowed to chemotax for 3 hours at 37° C. and 5% CO2. An aliquot of the cells that had migrated to the bottom chamber was taken and counted then compared to vehicle.

As to `COc1ccc2[nH]cc(C3CCN(C(C(=O)O)C4CCN(C(=O)/C=C/c5ccc(Cl)c(Cl)c5)CC4)CC3)c2c1` (centres unmarked) [Cpd 47, {1-[(2E)-3-(3,4-dichloro-phenyl)-acryloyl]-piperidin-4-yl}-[4-(5-methoxy-1H-indol-3-yl)-piperidin-1-yl]-acetic acid], the IC50 against CCR2 came out at 0.01 µM; in the test with THP-1 cells it was 0.0002 µM.
`O=C(O)C(C1CCN(C(=O)/C=C/c2ccc(F)c(Cl)c2)CC1)N1CCC(c2c[nH]c3ccccc23)CC1` (centres unmarked) [Cpd 76, {1-[(2E)-3-(3-chloro-4-fluoro-phenyl)-acryloyl]-piperidin-4-yl}-[4-(1H-indol-3-yl)-piperidin-1-yl]-acetic acid]: the IC50 was found to be 0.002 µM against CCR2 and 0.01 µM with THP-1 cells.
Take `COc1ccc2c(C3CCN(C(C(=O)O)C4CCN(C(=O)Nc5ccc(Cl)c(Cl)c5)CC4)CC3)c[nH]c2c1` (centres unmarked) [Cpd 95, [1-(3,4-dichloro-phenylcarbamoyl)-piperidin-4-yl]-[4-(6-methoxy-1H-indol-3-yl)-piperidin-1-yl]-acetic acid]: the IC50 against CCR2 and with THP-1 cells was 0.02 µM each time.
For `CC(=O)Nc1ccc2[nH]cc(C3CCN(C(C(=O)O)C4CCN(C(=O)/C=C/c5cc(F)c(F)c(F)c5)CC4)CC3)c2c1` (centres unmarked) [Cpd 17, [4-(5-acetylamino-1H-indol-3-yl)-piperidin-1-yl]-{1-[(2E)-3-(3,4,5-trifluoro-phenyl)-acryloyl]-piperidin-4-yl}-acetic acid], the IC50 on CCR2 came out at 0.16 µM; in the test with THP-1 cells, 0.02 µM.
As for `O=C(O)C(C1CCN(C(=O)/C=C/c2ccc(Cl)cc2)CC1)N1CCC(c2c[nH]c3ccccc23)CC1` (centres unmarked) [Cpd 34, {1-[(2E)-3-(4-chloro-phenyl)-acryloyl]-piperidin-4-yl}-[4-(1H-indol-3-yl)-piperidin-1-yl]-acetic acid], the IC50 on CCR2 was 0.01 µM; in the test on THP-1 cells, 0.006 µM.
In the same order, the values of `O=C(O)C(C1CCN(C(=O)Nc2cccc(Cl)c2)CC1)N1CCC(c2c[nH]c3ccccc23)CC1` (centres unmarked) [Cpd 86, [1-(3-chloro-phenylcarbamoyl)-piperidin-4-yl]-[4-(1H-indol-3-yl)-piperidin-1-yl]-acetic acid] are 0.21 µM and 0.28 µM.
In the same order, the values of `O=C(O)C(C1CCN(C(=O)/C=C/c2ccc(F)cc2)CC1)N1CCC(c2c[nH]c3ccccc23)CC1` (centres unmarked) [Cpd 77, {1-[(2E)-3-(4-fluoro-phenyl)-acryloyl]-piperidin-4-yl}-[4-(1H-indol-3-yl)-piperidin-1-yl]-acetic acid] are 0.07 µM and 0.06 µM.
In the same order, the values of `O=C(/C=C/c1cc(F)cc(F)c1)N1CCC(C(CO)N2CCC(c3nc4ccccc4[nH]3)CC2)CC1` (centres unmarked) [Cpd 174, (2E)-1-(4-{1-[4-(1H-benzoimidazol-2-yl)-piperidin-1-yl]-2-hydroxy-ethyl}-piperidin-1-yl)-3-(3,5-difluoro-phenyl)-propenone] are 0.15 µM and 0.45 µM.
In the case of `O=C(O)C(C1CCN(C(=O)Nc2ccc(F)c(C(F)(F)F)c2)CC1)N1CCC(c2c[nH]c3ccccc23)CC1` (centres unmarked) [Cpd 58, [1-(4-fluoro-3-trifluoromethyl-phenylcarbamoyl)-piperidin-4-yl]-[4-(1H-indol-3-yl)-piperidin-1-yl]-acetic acid], the IC50 stood at 0.09 µM against CCR2 and 0.13 µM in the test on THP-1 cells.
As to `Cc1cccc(/C=C/C(=O)N2CCC(C(C(=O)O)N3CCC(c4c[nH]c5ccccc45)CC3)CC2)c1` (centres unmarked) [Cpd 70, [4-(1H-indol-3-yl)-piperidin-1-yl]-{1-[(2E)-3-m-tolyl-acryloyl]-piperidin-4-yl}-acetic acid], the figures for the IC50 against CCR2 and with THP-1 cells were 0.003 µM and 0.02 µM, respectively.
Turning to `O=C(O)C(C1CCN(C(=O)Nc2cccc(Br)c2)CC1)N1CCC(c2c[nH]c3ccccc23)CC1` (centres unmarked) [Cpd 85, [1-(3-bromo-phenylcarbamoyl)-piperidin-4-yl]-[4-(1H-indol-3-yl)-piperidin-1-yl]-acetic acid], the IC50 turned out to be 0.17 µM against CCR2 and 0.19 µM with THP-1 cells.
Turning to `COc1cccc2[nH]cc(C3CCN(C(C(=O)O)C4CCN(C(=O)/C=C/c5cc(F)cc(F)c5)CC4)CC3)c12` (centres unmarked) [Cpd 41, {1-[(2E)-3-(3,5-difluoro-phenyl)-acryloyl]-piperidin-4-yl}-[4-(4-methoxy-1H-indol-3-yl)-piperidin-1-yl]-acetic acid], the IC50 against CCR2 is 0.014 µM; in the test on THP-1 cells, 0.04 µM.
Taken in the same sequence, the figures for `O=C(O)C(C1CCN(C(=O)/C=C/c2cccc(Br)c2)CC1)N1CCC(c2c[nH]c3ccccc23)CC1` (centres unmarked) [Cpd 71, {1-[(2E)-3-(3-bromo-phenyl)-acryloyl]-piperidin-4-yl}-[4-(1H-indol-3-yl)-piperidin-1-yl]-acetic acid] were 0.02 µM and 0.007 µM.
Turning to `O=C(O)C(C1CCN(C(=O)/C=C/c2ccc(Cl)c(Cl)c2)CC1)N1CCC(c2c[nH]c3cc(Cl)ccc23)CC1` (centres unmarked) [Cpd 46, [4-(6-chloro-1H-indol-3-yl)-piperidin-1-yl]-{1-[(2E)-3-(3,4-dichloro-phenyl)-acryloyl]-piperidin-4-yl}-acetic acid], the figures for the IC50 on CCR2 and with THP-1 cells were 0.001 µM and 0.0002 µM, respectively.
For `O=C(O)C(C1CCN(C(=O)Nc2cc(F)cc(F)c2)CC1)N1CCC(c2c[nH]c3ccccc23)CC1` (centres unmarked) [Cpd 28, [1-(3,5-difluoro-phenylcarbamoyl)-piperidin-4-yl]-[4-(1H-indol-3-yl)-piperidin-1-yl]-acetic acid], the values for the IC50 against CCR2 and in the test on THP-1 cells were 0.1 µM and 0.43 µM, respectively.
In the same order, the values of `O=C(O)C(C1CCN(C(=O)/C=C/c2cccc(Cl)c2)CC1)N1CCC(c2c[nH]c3ccccc23)CC1` (centres unmarked) [Cpd 93, {1-[(2E)-3-(3-chloro-phenyl)-acryloyl]-piperidin-4-yl}-[4-(1H-indol-3-yl)-piperidin-1-yl]-acetic acid] are 0.004 µM and 0.02 µM.
`O=C(O)C(C1CCN(C(=O)Nc2ccc(F)c(Cl)c2)CC1)N1CCC(c2c[nH]c3ccccc23)CC1` (centres unmarked) [Cpd 48, [1-(3-chloro-4-fluoro-phenylcarbamoyl)-piperidin-4-yl]-[4-(1H-indol-3-yl)-piperidin-1-yl]-acetic acid]: the IC50 turned out to be 0.03 µM on CCR2 and 0.04 µM with THP-1 cells.
Turning to `CS(=O)(=O)Nc1ccc2[nH]cc(C3CCN(C(C(=O)O)C4CCN(C(=O)/C=C/c5cc(F)cc(F)c5)CC4)CC3)c2c1` (centres unmarked) [Cpd 29, {1-[(2E)-3-(3,5-difluoro-phenyl)-acryloyl]-piperidin-4-yl}-[4-(5-methanesulfonylamino-1H-indol-3-yl)-piperidin-1-yl]-acetic acid], the IC50 against CCR2 worked out at 0.024 µM; in the test with THP-1 cells it was 0.0004 µM.
In the same order, the values of `CC(C)(C)OC(=O)Nc1ccc2[nH]cc(C3CCN(C(C(=O)O)C4CCN(C(=O)/C=C/c5cc(F)c(F)c(F)c5)CC4)CC3)c2c1` (centres unmarked) [Cpd 81] are 0.03 µM and 0.03 µM.
In the case of `COc1ccc2c(C3CCN(C(C(=O)O)C4CCN(C(=O)/C=C/c5cc(F)cc(F)c5)CC4)CC3)c[nH]c2c1` (centres unmarked) [Cpd 38, {1-[(2E)-3-(3,5-difluoro-phenyl)-acryloyl]-piperidin-4-yl}-[4-(6-methoxy-1H-indol-3-yl)-piperidin-1-yl]-acetic acid], the half-inhibitory concentration (IC50) against CCR2 turned out to be 0.02 µM; with THP-1 cells it was 0.004 µM.
On to `O=C(O)C(C1CCN(C(=O)/C=C/c2cc(F)c(F)c(F)c2)CC1)N1CCC(c2c[nH]c3ncccc23)CC1` (centres unmarked) [Cpd 151, [4-(1H-pyrrolo[2,3-b]pyridin-3-yl)-piperidin-1-yl]-{1-[(2E)-3-(3,4,5-trifluoro-phenyl)-acryloyl]-piperidin-4-yl}-acetic acid], for which the IC50 was found to be 0.01 µM on CCR2 and 0.03 µM in the test on THP-1 cells.
In the same order, the values of `O=C(O)C(C1CCN(C(=O)/C=C/c2ccc(Cl)c(Cl)c2)CC1)N1CCC(c2c[nH]c3cc(F)ccc23)CC1` (centres unmarked) [Cpd 39, {1-[(2E)-3-(3,4-dichloro-phenyl)-acryloyl]-piperidin-4-yl}-[4-(6-fluoro-1H-indol-3-yl)-piperidin-1-yl]-acetic acid] are 0.002 µM and 0.0019 µM.
Taken in the same sequence, the figures for `O=C(O)C(C1CCN(C(=O)/C=C/c2ccc(F)c(Br)c2)CC1)N1CCC(c2c[nH]c3ccccc23)CC1` (centres unmarked) [Cpd 36, {1-[(2E)-3-(3-bromo-4-fluoro-phenyl)-acryloyl]-piperidin-4-yl}-[4-(1H-indol-3-yl)-piperidin-1-yl]-acetic acid] were 0.008 µM and 0.0004 µM.
In the same order, the values of `O=C(O)C(C1CCN(C(=O)Nc2ccc(Cl)c(C(F)(F)F)c2)CC1)N1CCC(c2c[nH]c3ccccc23)CC1` (centres unmarked) [Cpd 57, [1-(4-chloro-3-trifluoromethyl-phenylcarbamoyl)-piperidin-4-yl]-[4-(1H-indol-3-yl)-piperidin-1-yl]-acetic acid] are 0.02 µM and 0.003 µM.
Turning to `O=C(O)C(C1CCN(C(=O)/C=C/c2ccc(C(F)(F)F)c(F)c2)CC1)N1CCC(c2c[nH]c3ccccc23)CC1` (centres unmarked) [Cpd 75, {1-[(2E)-3-(3-fluoro-4-trifluoromethyl-phenyl)-acryloyl]-piperidin-4-yl}-[4-(1H-indol-3-yl)-piperidin-1-yl]-acetic acid], the IC50 against CCR2 came to 0.004 µM; with THP-1 cells, 0.009 µM.

Broadly, the IC50 is the point on the concentration scale where inhibition reaches its midpoint.
